Source: patent US20220324835A1 (Nurix Therapeutics, Inc., priority 2018, published 2022)

Tests used:
Assay type in all cases: cell-based
[1] = system: primary human total T-cells; experiment: T-cell activation assessed by CD69 expression
Description: (§1) Peripheral blood mononuclear cells (PBMC) were obtained either: 1) by using Ficoll-Paque™ (GE Healthcare) for separation of peripheral blood hematopoietic cells from buffy coats of healthy human donors; or 2) directly from FeukoPak donations. Total human primary T-cells were isolated from the PMBCs utilizing negative selection with commercial kits following the manufacturer's protocol (Miltenyi Catalog #130-096-535 (i.e., cocktail of antibodies against surface markers CD14, CD15, CD16, CD19, CD34, CD36, CD56, CD123 and CD235a are incubated with the PBMCs before passing the samples by magnetic beads for removal of cells expressing those surface markers) or StemCells Catalog #17951) to yield >95% CD3+ cells as assessed by flow cytometry. For measurement of cell proliferation, cells were labeled with Cell Trace Violet (Invitrogen) following manufacturer's protocol prior to activation by stimulation with anti-CD3 antibody alone or in combination with anti-CD28 antibody. The Cbl-b inhibitor was added to 1×10^5 cells per well at multiple concentrations (e.g., 10 μM, 1.11 μM, or 0.123 μM) with a final DMSO concentration of <0.1%. The plate was incubated for one hour at 37° C. in 5% CO2. Following incubation with the Cbl-b inhibitor, primary human total T-cells were stimulated with either plate bound anti-CD3 antibody (OKT3) alone or plate bound anti-CD3 antibody (OKT3) with soluble anti-CD28 antibody (28.2) (Life Technologies). To prepare plates with plate bound anti-CD3 antibody (OKT3), 96-well round bottom tissue culture plates were coated with 100 μl of anti-CD3 antibody (OKT3) at 10 μg/mL for 4 hours at 37° C. 5% CO2 in phosphate buffered saline (PBS). The plates were washed with PBS prior to adding the cells with or without soluble anti-CD28 antibody (28.2) to each well at a final concentration of 5 μg/mL. Cells were stimulated for 48 hours prior to harvesting the cell free supernatant and staining the cell population for surface marker assessment by flow cytometry. Supernatants were analyzed for cytokine secretion (e.g., GM-CSF, IFNγ and TNFα) by ELISA (R&D Systems, Peprotech or Life Technologies) or Luminex multiplex kits (Procarta Life Technologies) following manufacturer's protocol. Cells were stained with anti-CD69 (BD Biosciences) to assess levels of surface markers of activation. Proliferation was measured by flow cytometry and data was analyzed with FlowJo v7.6.5 or v10. Readouts were reported as fold change over baseline. In some embodiments, baseline was the measurement obtained from total human T-cells stimulated with anti-CD3 antibody alone, wherein the cells were not incubated with a Cbl-b inhibitor. In some embodiments, baseline was the measurement obtained from total human T-cells stimulated with anti-CD3 antibody and anti-CD28 antibody, where the cells were not incubated with a Cbl-b inhibitor.
(§2) Cbl-b inhibitors were tested to determine their ability to induce or enhance secretion of cytokines from T-cells (e.g., GM-CSF, IFNγ and TNFα) and/or surface expression of cell surface markers on T-cells (e.g., CD69) that is indicative of T-cell activation. Cbl-b inhibitors were also tested to determine their ability to induce or enhance T-cell proliferation. Cbl-b inhibitors were tested for their effects on T-cell activation in the presence of costimulation and where conditions were suboptimal for priming.
(§3) Readouts for T-cell activation were reported as fold change over baseline. Baseline for this study was the measurement obtained from total human T-cells stimulated with anti-CD3 antibody alone or anti-CD3 antibody in combination with soluble anti-CD28 antibody, where the cells were not incubated with a Cbl-b inhibitor. For T-cells stimulated with anti-CD3/anti-CD28 or with anti-CD3 alone changes greater than 1,2-fold over baseline for % positive CD69 staining and greater than 2-fold over baseline for % total proliferating cells were considered a significant and positive response (Table 4a). […]

[2] = system: primary human total T-cells; experiment: T-cell activation assessed by cell proliferation (Cell Trace Violet)
Description: as §1, §2, §3

anergic human T-cells = experiment: Anergic T-cell activation assessed by IFNγ secretion (ionomycin-induced anergy); conditions: anergic T-cells re-challenged with anti-CD3 and anti-CD28 for 24 hours, read-out: IFNγ Fold change from baseline
Description: Peripheral blood mononuclear cells (PBMC) were obtained either: 1) by using Ficoll-Paque™ (GE Healthcare) for separation of peripheral blood hematopoietic cells from buffy coats of healthy human donors; or 2) directly from LeukoPak donations. Total human primary T-cells were isolated from the PBMCs utilizing negative selection with commercial kits following the manufacturer's protocol (Miltenyi Catalog #130-096-535 (i.e., cocktail of antibodies against surface markers CD14, CD15, CD16, CD19, CD34, CD36, CD56, CD123 and CD235a were incubated with the PBMCs before passing the samples by magnetic beads for removal of cells expressing those surface markers) or StemCells Catalog #17951) to yield >95% CD3+ cells assessed by flow cytometry. The cells were activated with immobilized anti-CD3 antibody (OKT3) and soluble anti-CD28 antibody (28.2) for two days at which time they are washed and allowed to rest for three days in the absence of stimulation. They were then treated with ionomycin (Sigma) for 18-24 hours to induce anergy. Following two washes to remove the ionomycin from the samples, Cbl-b inhibitor compounds were added to the cells at the indicated concentrations (e.g. 10, 1.11 and 0.37 μM) and incubated for 1 hour. The cells were then re-challenged with anti-CD3 antibody and anti-CD28 antibody for 24 hours at which point cell free supernatants were collected and assessed for cytokines (e.g., IFNγ) by ELISA (R&D Systems or Peprotech) or Luminex multiplex kits (Procarta Life Technologies) following manufacturer's protocols.
Cbl-b inhibitors were tested to determine their ability to induce or enhance secretion of cytokines from anergic T-cells (e.g. IFNγ), which is indicative of decreased T-cell tolerance.
Readouts were reported as fold change over baseline. Baseline for this study was the measurement obtained from anergic human T-cells stimulated with immobilized anti-CD3 and soluble anti-CD28, wherein the T-cells were not incubated with a Cbl-b inhibitor (Table 7). For IFNγ changes greater than 2.5-fold over baseline were considered a positive response (Table 7). Compounds were ranked into bins according to their readout as follows for IFNγ: A indicates ≤2.50, B indicates 2.51-4.00 and C indicates >4.01.

[3] = CD3/CD28 stimulation, CD4 T-cells, read-out: % CD69+ (CD4)
[4] = CD3/CD28 stimulation, CD8 T-cells, read-out: % CD69+ (CD8)
[5] = CD3 alone stimulation, CD4 T-cells, read-out: % CD69+ (CD4)
[6] = CD3 alone stimulation, CD8 T-cells, read-out: % CD69+ (CD8)
[7] = CD3/CD28 stimulation, CD4 T-cells, read-out: % CP (cell proliferation) (CD4)
[8] = CD3/CD28 stimulation, CD8 T-cells, read-out: % CP (cell proliferation) (CD8)
[9] = CD3 alone stimulation, CD8 T-cells, read-out: % CP (cell proliferation) (CD8)

Structure (SMILES)	fold induction at 1.11 µM [1, 3]	fold induction at 10 µM [1, 3]	fold induction at 1.11 µM [1, 4]	fold induction at 10 µM [1, 4]	fold induction at 1.11 µM [1, 5]	fold induction at 10 µM [1, 5]	fold induction at 1.11 µM [1, 6]	fold induction at 10 µM [1, 6]	fold induction at 1.11 µM [2, 7]	fold induction at 10 µM [2, 7]	fold induction at 1.11 µM [2, 8]	fold induction at 10 µM [2, 8]	fold induction at 1.11 µM [2, 9]	fold induction at 10 µM [2, 9]	fold induction at 0.37 µM (anergic human T-cells)	fold induction at 1.11 µM (anergic human T-cells)	fold induction at 10 µM (anergic human T-cells)
C[C@H](Cc1nncn1C)c1cccc(N2Cc3c(cc(CN4CC(O)C4)cc3C(F)(F)F)C2=O)c1 [Compound 393, (R)-6-((3-hydroxyazetidin-1-yl)methyl)-2-(3-(1-(4-methyl-4H-1,2,4-triazol-3-yl)propan-2-yl)phenyl)-4-(trifluoromethyl)isoindolin-1-one]	≤ 1.2	1.2 to 1.4	≤ 1.2	≤ 1.2	1.2 to 1.4	1.2 to 1.4	≤ 1.2	≤ 1.2	< 2	3.01 to 4	< 2	2.01 to 3	< 2	< 2	≤ 2.5	2.51 to 4	> 4.01
Cn1cnnc1C(F)(F)[C@](C)(F)c1cccc(N2Cc3c(cc(C(=O)N4CC[C@H](O)C4)cc3C(F)(F)F)C2=O)c1 [Compound 438, 6-((S)-3-hydroxypyrrolidine-1-carbonyl)-2-(3-((R)-1,1,2-trifluoro-1-(4-methyl-4H-1,2,4-triazol-3-yl)propan-2-yl)phenyl)-4-(trifluoromethyl)isoindolin-1-one]	1.2 to 1.4	1.4 to 1.6	≤ 1.2	1.2 to 1.4	1.2 to 1.4	> 1.6	≤ 1.2	1.2 to 1.4	3.01 to 4	> 4	< 2	3.01 to 4	< 2	> 4	≤ 2.5	≤ 2.5	> 4.01
COC1CN(Cc2cc3c(c(C(F)(F)F)c2)CN(c2cccc([C@@](C)(F)C(F)(F)c4nncn4C)c2)C3=O)C1 [Compound 452, (R)-6-((3-methoxyazetidin-1-yl)methyl)-2-(3-(1,1,2-trifluoro-1-(4-methyl-4H-1,2,4-triazol-3-yl)propan-2-yl)phenyl)-4-(trifluoromethyl)isoindolin-1-one]	1.2 to 1.4	1.4 to 1.6	1.2 to 1.4	1.2 to 1.4	1.4 to 1.6	> 1.6	1.2 to 1.4	1.4 to 1.6	> 4	> 4	3.01 to 4	> 4	3.01 to 4	> 4	≤ 2.5	2.51 to 4	> 4.01
C[C@H](c1cc2c(c(C(F)(F)F)c1)CN(c1cccc(C3(Cc4nncn4C)COC3)c1)C2=O)N1CC[C@H](F)C1 [Compound 413, 6-((R)-1-((S)-3-fluoropyrrolidin-1-yl)ethyl)-2-(3-(3-((4-methyl-4H-1,2,4-triazol-3-yl)methyl)oxetan-3-yl)phenyl)-4-(trifluoromethyl)isoindolin-1-one]	1.4 to 1.6	> 1.6	1.2 to 1.4	1.2 to 1.4	1.4 to 1.6	> 1.6	1.2 to 1.4	1.4 to 1.6	> 4	> 4	3.01 to 4	> 4	3.01 to 4	> 4	2.51 to 4	> 4.01	> 4.01
Cn1cnnc1CC1(c2cccc(NC(=O)c3cc(CN4CCC5(CC5)C4)cc(C4CC4)n3)c2)COC1 [Compound 519, 4-((5-azaspiro[2.4]heptan-5-yl)methyl)-6-cyclopropyl-N-(3-(3-((4-methyl-4H-1,2,4-triazol-3-yl)methyl)oxetan-3-yl)phenyl)picolinamide]															> 4.01	> 4.01	> 4.01
Cn1cnnc1C(F)(F)[C@](C)(F)c1cccc(N2Cc3c(cc(N4CCNCC4)cc3C(F)(F)F)C2=O)c1 [Compound 442, (R)-6-(Piperazin-1-yl)-2-(3-(1,1,2-trifluoro-1-(4-methyl-4H-1,2,4-triazol-3-yl)propan-2-yl)phenyl)-4-(trifluoromethyl)isoindolin-1-one]															≤ 2.5	2.51 to 4	2.51 to 4
